Reference: patent US7790749B2, “Use of pleuromutilins for the treatment of disorders caused by Helicobacter pylori” (Nabriva Therapeutics AG, priority 2002, dated 2010)
Values after ≈ are worked out from the molar mass of the structure shown. Where two headings read alike, the source gives them in different places.

Tests used:
Type in all cases: cell-based
H.pylori ATCC 43504 = assay: Agar Dilution Method, MIC against H.pylori ATCC 43504; details: Helicobacter pylori, ATCC43504, 72 h, read-out: minimum inhibitory concentrations (MIC)
Protocol: (§1) Activity against strains of Helicobacter pylori is determined according to the Agar Dilution Method, using Mueller Hinton agar, supplementet with >2 week old horse blood (5% v/v), incubation at 35° C. for 3 days in a gas system-generated microaerobic atmosphere according to NCCLS recommendations, such as disclosed e.g. in “Methods for dilution antimicrobial susceptibility tests for bacteria that grow aerobically ”—Fourth edition; approved standard. M7-A4 Vol. 17 No. 2 (1997) and M100-S9 Vol. 19 No. 1 (1999).
(§2) Activity of TEST COMPOUNDS (TCs) against H.pylori strains ATCC 43504, 43526, 43629, 49503 and 51652 is determined according to the Agar Dilution Method, using Mueller Hinton agar, supplementet with >2 week old horse blood (5% v/v), incubation at 35° C. for 3 days in a gas system-generated microaerobic atmosphere according to NCCLS recommendations, such as disclosed in “Methods for dilution antimicrobial susceptibility tests for bacteria that grow aerobically “—Fourth edition; approved standard. M7-A4 Vol. 17 No. 2 (1997) and M100-S9 Vol. 19 No. 1(1999).

H.pylori ATCC 49503 = assay: Agar Dilution Method, MIC against H.pylori ATCC 49503; details: Helicobacter pylori, ATCC49503, 72 h, read-out: minimum inhibitory concentrations (MIC)
Protocol: as §1, §2

H.pylori ATCC 51652 = assay: Agar Dilution Method, MIC against H.pylori ATCC 51652; details: Helicobacter pylori, ATCC51652, 72 h, read-out: minimum inhibitory concentrations (MIC)
Protocol: as §1, §2

H.pylori ATCC 43629 = assay: Agar Dilution Method, MIC against H.pylori ATCC 43629; details: Helicobacter pylori, ATCC43629, 72 h, read-out: minimum inhibitory concentrations (MIC)
Protocol: as §1, §2

H.pylori ATCC 43526 = assay: Agar Dilution Method, MIC against H.pylori ATCC 43526; details: Helicobacter pylori, ATCC43526, 72 h, read-out: minimum inhibitory concentrations (MIC)
Protocol: as §1, §2

[1] = H.pylori/43504, Mueller Hinton agar, 5% horse blood, 35° C., 3 days, microaerobic
[2] = H.pylori/49503, Mueller Hinton agar, 5% horse blood, 35° C., 3 days, microaerobic
[3] = H.pylori/51652, Mueller Hinton agar, 5% horse blood, 35° C., 3 days, microaerobic
[4] = H.pylori/43629, Mueller Hinton agar, 5% horse blood, 35° C., 3 days, microaerobic
[5] = H.pylori/43526, Mueller Hinton agar, 5% horse blood, 35° C., 3 days, microaerobic

Structure (SMILES)	MIC (H.pylori ATCC 43504) [µg/mL]	MIC (H.pylori ATCC 49503) [µg/mL]	MIC (H.pylori ATCC 51652) [µg/mL]	MIC (H.pylori ATCC 43629) [µg/mL]	MIC (H.pylori ATCC 43526) [µg/mL]	MIC (H.pylori ATCC 43504; [1]) [µg/mL]	MIC (H.pylori ATCC 49503; [2]) [µg/mL]	MIC (H.pylori ATCC 51652; [3]) [µg/mL]	MIC (H.pylori ATCC 43629; [4]) [µg/mL]	MIC (H.pylori ATCC 43526; [5]) [µg/mL]
CN(C)[C@@H]1C(O)=C(C(N)=O)C(=O)[C@@]2(O)C(O)=C3C(=O)c4c(O)cccc4[C@@](C)(O)[C@H]3C[C@@H]12 [TEC, tetracycline]	0.4 (≈ 0.9 µM)	0.2 (≈ 0.45 µM)	0.2 (≈ 0.45 µM)	0.4 (≈ 0.9 µM)	0.4 (≈ 0.9 µM)	–	–	–	–	–
C=C[C@]1(C)C[C@@H](OC(=O)CSC2CCCN(C(=O)C(N)C(C)C)C2)[C@]2(C)C(C)CCC3(CCC(=O)C32)[C@@H](C)C1O (some centres unmarked) [TC-III]	–	–	–	–	–	0.025 (≈ 0.0433 µM)	0.025 (≈ 0.0433 µM)	0.025 (≈ 0.0433 µM)	< 0.0125	0.05 (≈ 0.0867 µM)
C=C[C@]1(C)C[C@@H](OC(=O)CSc2cccc(NC(=O)[C@@H]3CCCCN3)c2)[C@]2(C)C(C)CCC3(CCC(=O)C32)[C@@H](C)C1O (some centres unmarked) [TC-II]	–	–	–	–	–	< 0.0125	0.025 (≈ 0.0419 µM)	0.025 (≈ 0.0419 µM)	< 0.0125	0.05 (≈ 0.0838 µM)
C=C[C@]1(C)C[C@@H](OC(=O)CSC(C)(C)CNC(=O)[C@H](N)C(C)C)[C@]2(C)[C@H](C)CC[C@]3(CCC(=O)[C@H]32)[C@@H](C)[C@@H]1O [TC-I, Valnemulin]	–	–	–	–	–	0.025 (≈ 0.0443 µM)	< 0.0125	0.025 (≈ 0.0443 µM)	< 0.0125	0.05 (≈ 0.0885 µM)
